Where “and” joins values, the source holds several entries; their conditions need not be identical. Equal entries are not always repeated.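 Exposure lasted 48 hours, with cells grown in 96-well plates and compounds tested at five concentrations. At the GI50, growth is halved. TGI denotes the concentration required for complete inhibition of growth.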
Columns and labels:
Test in all cases: DTP human tumour cell line panel, 48 h
RXF 393 renal = tested on: RXF 393 renal
MALME-3M melanoma = tested on: MALME-3M melanoma
SN12C renal = tested on: SN12C renal
SF-539 CNS = tested on: SF-539 CNS
U251 CNS = tested on: U251 CNS
786-0 renal = tested on: 786-0 renal
TK-10 renal = tested on: TK-10 renal
MOLT-4 leukemia = tested on: MOLT-4 leukemia
SK-MEL-2 melanoma = tested on: SK-MEL-2 melanoma
SK-MEL-28 melanoma = tested on: SK-MEL-28 melanoma

Structure (SMILES)	GI50 (RXF 393 renal)	TGI (RXF 393 renal)	GI50 (MALME-3M melanoma)	TGI (MALME-3M melanoma)	GI50 (SN12C renal)	TGI (SN12C renal)	GI50 (SF-539 CNS)	TGI (SF-539 CNS)	GI50 (U251 CNS)	TGI (U251 CNS)	GI50 (786-0 renal)	TGI (786-0 renal)	GI50 (TK-10 renal)	TGI (TK-10 renal)	GI50 (MOLT-4 leukemia)	TGI (MOLT-4 leukemia)	GI50 (SK-MEL-2 melanoma)	TGI (SK-MEL-2 melanoma)	GI50 (SK-MEL-28 melanoma)	TGI (SK-MEL-28 melanoma)
Cc1cc(I)cc(CN(C)CCCCN2CCCC2)c1O	11.8 µM	31.8 µM	19.7 µM	36.1 µM	52.2 µM	> 100 µM	14.7 µM	28.7 µM	18.9 µM	49.5 µM	15.3 µM	31.4 µM	20.8 µM	50.7 µM	15.5 µM	33.4 µM	18.2 µM	34.8 µM	13.4 µM	27.8 µM
O=C(/C=C/c1cccs1)Nc1ncc(Cc2ccccc2F)s1	0.192 µM	0.508 µM	0.359 µM	> 100 µM	0.633 µM	> 100 µM	0.219 µM	0.649 µM	0.35 µM	> 100 µM	0.59 µM	> 100 µM	–	> 100 µM	0.378 µM	> 100 µM	0.518 µM	> 100 µM	0.886 µM	> 100 µM
CCn1c(-c2cc3ccccc3cc2OC(=O)c2ccccc2)n[nH]c1=S	> 50 µM	> 50 µM	> 50 µM	> 50 µM	35.9 µM	> 50 µM	> 50 µM	> 50 µM	> 50 µM	> 50 µM	> 50 µM	> 50 µM	> 50 µM	> 50 µM	28 µM	> 50 µM	25.5 µM	> 50 µM	> 50 µM	> 50 µM
CCc1ccc(/C=C2/SC(=S)NC2=O)cc1	18.9 µM	55.7 µM	23.2 µM	> 80.6 µM	20.3 µM	81.4 µM	21 µM	56.6 µM	18.7 µM	62.6 µM	22.6 µM	81.3 µM	23.4 µM	> 85.4 µM	23.5 µM	84.3 µM	16.4 µM	41.3 µM	22.9 µM	79.7 µM
COc1cc(Nc2ncc(-c3ccccc3)o2)cc(OC)c1OC	0.77 µM	17.4 µM	6.29 µM	> 25 µM	6.35 µM	> 25 µM	1.53 µM	> 25 µM	4.35 µM	> 25 µM	5.13 µM	> 25 µM	1.62 µM	> 25 µM	4.36 µM	> 25 µM	1.52 µM	> 11.6 µM	4.38 µM	> 25 µM
C/C(=N\NC(=S)Nc1ccc([N+](=O)[O-])cc1S(=O)(=O)O)c1ccccn1	–	86.1 µM	–	> 100 µM	–	> 100 µM	–	> 100 µM	–	> 100 µM	–	> 100 µM	–	> 100 µM	–	> 100 µM	–	91.3 µM	–	> 100 µM
NC(=NC1C2CC3CC(C2)CC1C3)Nc1ccc(I)cc1 (centres undefined)	3.1 µM	13.5 µM	2.09 µM	5.36 µM	3.82 µM	14.6 µM	4.16 µM	15.5 µM	3.42 µM	12.6 µM	4.03 µM	15.5 µM	2.59 µM	8.85 µM	2.22 µM	8.79 µM	2.63 µM	7.62 µM	2.53 µM	7.58 µM
O=C(O)CNS(=O)(=O)c1ccc(NC(=O)c2cccc([N+](=O)[O-])c2)cc1	–	> 100 µM	–	> 100 µM	–	> 100 µM	–	> 100 µM	–	> 100 µM	–	> 100 µM	–	> 100 µM	–	> 100 µM	–	> 100 µM	–	> 100 µM
CC(Cl)CC(=O)Nc1ccc2c(c1)oc(=O)c1cc(NC(=O)CC(C)Cl)ccc12 (centres undefined)	0.762 µM	22 µM	4.28 µM	21.3 µM	16.4 µM	32 µM	14.4 µM	33.1 µM	11.1 µM	23.7 µM	16.9 µM	44.1 µM	10.1 µM	23.8 µM	10.2 µM	34.4 µM	2.99 µM	83.6 µM	16.4 µM	34.2 µM
O=C(Nc1ccc(-c2nc3ccc(NC(=O)c4ccc(Cl)cc4)cc3[nH]2)cc1)c1ccc(Cl)cc1	0.0186 µM	1.93 µM	3.79 µM	11.4 µM	12 µM	24.3 µM	0.0709 µM	6.22 µM	0.412 µM	3.21 µM	0.308 µM	2.26 µM	2.39 µM	5.8 µM	0.901 µM	8.31 µM	12.6 µM	25.2 µM	2.78 µM	14.9 µM
CCn1cc(C2NC(=O)c3cc(F)ccc3N2)c2cccc(Cl)c21 (centres undefined)	0.149 µM	0.674 µM	2.55 µM	> 100 µM	0.706 µM	> 100 µM	0.177 µM	0.683 µM	0.33 µM	> 100 µM	0.618 µM	> 50.6 µM	> 100 µM	> 100 µM	0.293 µM	> 47.8 µM	0.887 µM	> 100 µM	0.847 µM	> 100 µM
N#CC(/C(=N\NC(N)=S)C(=O)NC1C2CC3CC(C2)CC1C3)c1ccc(Cl)cc1 (centres undefined)	–	> 100 µM	–	> 100 µM	–	> 100 µM	–	> 100 µM	–	> 100 µM	–	> 100 µM	–	> 100 µM	–	> 100 µM	–	> 100 µM	–	> 100 µM
COCCOC(=O)CCn1cc(F)c(=O)[nH]c1=O	13.8 µg/mL	> 150 µg/mL	> 150 µg/mL	> 150 µg/mL	7.8 µg/mL	> 150 µg/mL	7.42 µg/mL	> 150 µg/mL	51 µg/mL	> 150 µg/mL	8.12 µg/mL	> 150 µg/mL	6.77 µg/mL	> 150 µg/mL	19.7 µg/mL	> 150 µg/mL	> 150 µg/mL	> 150 µg/mL	31.7 µg/mL	> 150 µg/mL
O=C(N/N=C\c1cc(Cl)ccc1O)N/N=C/c1cc(Cl)ccc1O	> 100 µM	> 100 µM	34.3 µM	> 100 µM	> 100 µM	> 100 µM	2.32 µM	> 100 µM	0.997 µM	> 100 µM	> 100 µM	> 100 µM	> 100 µM	> 100 µM	57.5 µM	> 100 µM	> 100 µM	> 100 µM	> 100 µM	> 100 µM
COc1cc(C=NCC(=O)CSC(c2ccccc2)c2ccccc2)cc(OC)c1OC	23.7 µM	96.4 µM	16.8 µM	61.7 µM	25.8 µM	> 100 µM	33.1 µM	> 100 µM	32.2 µM	> 100 µM	24.6 µM	> 100 µM	14.5 µM	79.1 µM	6.96 µM	89.9 µM	19.6 µM	50 µM	23.8 µM	> 100 µM
O=C(O)CCN1C(=O)/C(=C/C(Cl)=C/c2ccccc2)SC1=S	1.69 µM	3.38 µM	2.22 µM	5.23 µM	2.67 µM	9.41 µM	2.67 µM	7.12 µM	1.66 µM	3.16 µM	3.23 µM	10.5 µM	4.19 µM	9.59 µM	1.98 µM	8.12 µM	2.16 µM	6.27 µM	2.11 µM	5.33 µM
O=C(NNc1ccc([N+](=O)[O-])cc1)C1OC(CO)C(O)C1O (centres undefined)	–	> 100 µM	–	> 100 µM	–	> 100 µM	–	> 100 µM	–	> 100 µM	–	> 100 µM	–	> 100 µM	–	> 100 µM	–	> 100 µM	–	> 100 µM
Cc1ccc(Nc2ccnc(Nc3cccc(C(N)=O)c3)n2)cc1O	0.895 µM	4.84 µM	6.27 µM	> 25 µM	3.7 µM	> 25 µM	3.46 µM	11.1 µM	7.84 µM	> 25 µM	8.09 µM	> 25 µM	6.39 µM	17.6 µM	10.5 µM	> 25 µM	8.45 µM	> 25 µM	11.2 µM	> 25 µM
NC(=O)Cn1c(=O)[nH]c(=O)c2[nH]cnc21	–	> 100 µM	–	> 100 µM	–	> 100 µM	–	> 100 µM	–	> 100 µM	–	> 100 µM	–	> 100 µM	–	> 100 µM	–	> 100 µM	–	> 100 µM
O=C1CCCC2COc3ccc(O)c1c32 (centres undefined)	–	> 100 µM	–	> 100 µM	–	> 100 µM	–	> 100 µM	–	> 100 µM	–	> 100 µM	–	> 100 µM	–	> 100 µM	–	> 100 µM	–	> 100 µM
CC(C)=CCC[C@](C)(O)[C@H]1CC[C@]2(C)[C@@H]1CC[C@@H]1[C@@]3(C)CC[C@H](OC(=O)CCC(=O)O)C(C)(C)[C@@H]3CC[C@]12C	17.4 µM	85 µM	16.8 µM	38.6 µM	25.5 µM	78.1 µM	19.7 µM	57.8 µM	28.1 µM	> 100 µM	> 100 µM	> 100 µM	87.8 µM	> 100 µM	21 µM	94 µM	25.3 µM	85.6 µM	16.9 µM	34.8 µM
COc1ccc(/C=C/CO)cc1OC	–	> 100 µM	–	> 100 µM	–	> 100 µM	–	> 100 µM	–	> 100 µM	–	> 100 µM	–	> 100 µM	–	> 100 µM	–	> 100 µM	–	> 100 µM
Nc1ccccc1C#Cc1ccccc1C#CCCCCO	5.73 µM	26.1 µM	12.4 µM	44.4 µM	2.8 µM	9.49 µM	19 µM	42.8 µM	22.6 µM	47.1 µM	16 µM	37.7 µM	27.5 µM	91.5 µM	22.7 µM	68.1 µM	28.4 µM	> 100 µM	28.4 µM	49.7 µM
C/C(=N\N=C(N)N)c1sc(-c2nc(C)c(/C(C)=N/N=C(N)N)s2)nc1C	–	> 95.3 µM	–	> 100 µM	–	> 100 µM	–	> 100 µM	–	> 100 µM	–	> 68.5 µM	–	> 100 µM	–	> 100 µM	–	> 100 µM	–	> 100 µM
OCC1CC2CC1C1(C2)OCCO1 (centres undefined)	–	> 100 µM	–	> 100 µM	–	> 100 µM	–	> 100 µM	–	> 100 µM	–	> 100 µM	–	> 100 µM	–	> 100 µM	–	> 100 µM	–	> 100 µM
Cc1ccc(S(=O)(=O)ON=C2CC(c3ccccc3)N(C)C(c3ccccc3)C2)cc1 (centres undefined)	–	48 µM and 71.6 µM	–	78.1 µM and 66.4 µM	–	55 µM	–	36 µM	–	55.3 µM and 53.6 µM	–	44.9 µM and 58.5 µM	–	49.1 µM and 48.5 µM	–	53.2 µM and > 100 µM	–	30 µM	–	54.3 µM and 49 µM
O=c1c2c(=NCCCN3CCCC3)cc3c(=O)n(CCCN4CCCC4)c(=O)c4c(NCCCN5CCCC5)cc(c(O)n1CCCN1CCCC1)c2c4-3	2.83 µM	8.23 µM	2.73 µM	7.98 µM	3.11 µM	34.2 µM	2.42 µM	8.98 µM	0.647 µM	10.4 µM	12.9 µM	> 100 µM	2.22 µM	8.65 µM	6.63 µM	> 100 µM	2.22 µM	6.57 µM	2.53 µM	5.31 µM
O=C1C=Cc2noc3cccc1c23	–	5.67 µM	–	25.7 µM	–	27.3 µM	–	30.2 µM	–	26.4 µM	–	20.7 µM	–	32.3 µM	–	> 100 µM	–	21.2 µM	–	17.6 µM
O=C(O)C(O)C(O)C1[O][Sb][O]C1CO (centres undefined)	> 100 µM	> 100 µM	23.6 µM and 7.62 µM	68.3 µM and 23.6 µM	> 100 µM	> 100 µM	> 100 µM	> 100 µM	> 100 µM	> 100 µM	> 100 µM	> 100 µM	> 100 µM	> 100 µM	> 100 µM	> 100 µM	85.8 µM and 36.8 µM	> 100 µM	> 100 µM and 13.7 µM	> 100 µM and 43.4 µM
CC(C)S(=O)(=O)n1c(N)nc2ccc(/C(=N/O)c3ccccc3)cc21	–	45.5 µM	–	> 100 µM	–	> 100 µM	–	49.6 µM	–	> 100 µM	–	> 100 µM	–	> 100 µM	–	52.2 µM	–	54.1 µM	–	> 100 µM

From PubChem BioAssay (NCI)
